Assay [1] relates to PAP. Conditions: cited from earlier work.
Assay [2] concerns the target T1, human PAP (Homo sapiens, UniProt P15309).
T1 sequence (P15309 33-386): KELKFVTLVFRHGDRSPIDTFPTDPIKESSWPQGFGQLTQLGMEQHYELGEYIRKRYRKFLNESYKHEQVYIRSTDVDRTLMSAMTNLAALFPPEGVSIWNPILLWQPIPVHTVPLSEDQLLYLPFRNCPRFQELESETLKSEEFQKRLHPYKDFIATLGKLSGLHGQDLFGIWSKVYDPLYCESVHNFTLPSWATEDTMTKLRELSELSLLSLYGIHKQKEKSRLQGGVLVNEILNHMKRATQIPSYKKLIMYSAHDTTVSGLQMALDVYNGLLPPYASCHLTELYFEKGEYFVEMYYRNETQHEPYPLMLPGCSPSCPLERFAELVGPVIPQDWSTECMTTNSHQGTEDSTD
It counts as biochemical.

Where “and” joins values, the source holds several entries; their conditions need not be identical. Equal entries are not always repeated. Where two headings read alike, the source gives them in different places.

As to `O=P(O)(O)C(NCc1ccccc1)c1ccccc1` (stereo not drawn) [BABPA, α-benzylaminobenzylphosphonic acid], the half-inhibitory concentration (IC50) entry in assay [1] (known PAP inhibitor) was “nanomolar range”.

For `Cc1cc(=O)oc2c(F)c(OP(=O)(O)O)c(F)cc12` [DiFMUP, difluoro-4-methylumbelliferyl phosphate], in assay [2], the Michaelis constant (Km) is 918 µM. Regarding `O=C([O-])[C@H](O)[C@@H](O)C(=O)[O-].[Na+].[Na+]` [sodium L-(+)-tartrate], in assay [2], the Hill slope was 0.96 and 0.89; the 50% inhibitory concentration (IC50) was 53 µM and 40 µM. Besides, in assay [1] (read-out: published IC50), the concentration for half-maximal inhibition (IC50) was 29 µM.

(Values after article PMC2808025 (Current Chemical Genomics, 2009).)
